# Where a name gives a salt, the structure may show the parent alone. Read-outs that look alike come from different tables or passages of the source. Marks after values point to notes of the source that are not given here.
# What was measured:
# Enterovirus EV71 = test: Impact of the drug on virus-induced cytopathy (CPE, MTT), EV71; format: cell-based; settings: Vero cells, 100TCID50, drug at about the maximum non-toxic concentration, 72 h
# Adenovirus (AdV) = test: Impact of the drug on virus-induced cytopathy (CPE, MTT), ADV; format: cell-based; settings: Vero cells, 100TCID50, drug at about the maximum non-toxic concentration, 72 h
# Coxsackievirus B3 (CVB3) = test: Impact of the drug on virus-induced cytopathy (CPE, MTT), CVB3; format: cell-based; settings: Vero cells, 100TCID50, drug at about the maximum non-toxic concentration, 72 h
# Vero cell = test: Cytotoxicity test on Vero cells (MTT); format: cell-based, African green monkey; settings: 72 h, Probit regression
# Experimental: Cytotoxicity test: drugs are diluted according to the concentrations indicated in Table 1 for the determination of cytotoxicity.
# The aforementioned drugs which are diluted with a maintenance solution (DMEM containing 2% or fetal bovine serum) to different concentrations are dropwise added to the Vero monolayer cell, each well is 0.2ml, there are 6 duplicate wells for each concentration, 6 wells for normal control (normal control group without adding drugs) and 6 wells for blank control (culture medium) are additionally provided, those are placed in an 5% CO2 incubator at 37° C. for culturing, observing CPE with an inverted microscope every day and recording. After 72 h, 20 μL (5 mg·mL^−1) of MTT solution is added in each well, and continues to be incubated for 4 h, the culture broth in each well is sucked and discarded, 100 μL of DMSO is added in each well, and is shaken for 5 min, measuring the OD value at 492 nm to calculate cell survival rate. In SPSS 18.0 statistical software, the cell survival rate is subjected to Probit regression analysis to calculate the maximum non-toxic concentration (TC0) and half toxic concentration (TC50) of the drug on the Vero cell.
# [1] = Solubility of the isolated solid; settings: water and ethanol
# [2] = system: influenza virus infected mice; format: in vivo, Kunming mice; settings: lung suspension, 5 days
# [3] = system: parainfluenza virus infected mice; format: in vivo, Kunming mice
# [4] = system: influenza virus infected mice; format: in vivo, Kunming mice; settings: 5 days
# [5] = system: parainfluenza virus pneumonia model mice; test: Observation of lung histomorphology, parainfluenza virus pneumonia mice; format: in vivo, Kunming mice; settings: 3.25 mg/kg/d to 13 mg/kg/d, fifth day, HE staining
# [6] = system: influenza virus pneumonia model mice; test: Observation of lung histomorphology, influenza virus pneumonia mice; format: in vivo, Kunming mice; settings: 3.25 mg/kg/d to 13 mg/kg/d, fifth day, HE staining
# Experimental: A degreasing cotton is placed in a 200-300 mL beaker, in which a suitable amount of ether (just for making cotton wet) is added, the beaker containing the degreasing cotton is inverted upside down, the mice are extremely excited when anesthetized therein, and are made to lie on their backs when clearly weak, the mice are infected nasally with 15LD50 influenza virus a .d parainfluenza virus at 0.03 ml/nostril, and the virus suspension is replaced with normal saline in the normal control group.
# The administration is performed once a day for five consecutive days. The virus control group is drenched with normal saline of the same volume.
# Various mice lungs are respectively taken in the fifth day after treatment; general pathological changes of their viscera are observed by naked eyes and are recorded. The lungs are cleaned by rinsing with normal saline and moisture thereon is sucked up by using filter paper; a portion of the lung is fixed with 10% formaldehyde, paraffin-embedded, sliced and HE-strained; observation and photographing are performed under a microscope.
# [7] = system: parainfluenza virus infected mice; format: in vivo, Kunming mice; remark: listed apart in the source
# Influenza virus = test: Impact of the drug on virus-induced cytopathy (CPE, MTT), influenza virus; format: cell-based
# Parainfluenza virus = test: Impact of the drug on virus-induced cytopathy (CPE, MTT), parainfluenza virus; format: cell-based; settings: Vero cells, 100TCID50, drug at about the maximum non-toxic concentration, 72 h
# [8] = system: Respiratory syncytial virus (RSV); test: Impact of the drug on virus-induced cytopathy (CPE, MTT), RSV; format: cell-based; settings: Vero cells, 100TCID50, drug at about the maximum non-toxic concentration, 72 h
# [9] = system: Herpes simplex virus type-1 (HSV-1); test: Impact of the drug on virus-induced cytopathy (CPE, MTT), HSV-I; format: cell-based; settings: Vero cells, 100TCID50, drug at about the maximum non-toxic concentration, 72 h
# [10] = system: Coxsackievirus A16 (CoxA16); test: Impact of the drug on virus-induced cytopathy (CPE, MTT), CoxA16; format: cell-based; settings: Vero cells, 100TCID50, drug at about the maximum non-toxic concentration, 72 h
# [11] = high dosage 13.0 mg/kg/d intragastric
# [12] = low dosage 3.25 mg/kg/d intragastric
# [13] = parainfluenza virus infected mice, high dosage 13.0 mg/kg/d intragastric, 5 days
# [14] = parainfluenza virus infected mice, low dosage 3.25 mg/kg/d intragastric, 5 days
SMILES,"antiviral effective rate (ER %), EV71 (Enterovirus EV71)","antiviral effective rate (ER %), ADV (Adenovirus (AdV))","antiviral effective rate (ER %), CVB3 (Coxsackievirus B3 (CVB3)) [%]",half toxic concentration (TC50) (Vero cell) [mg/L],the maximum non-toxic concentration (TC0) (Vero cell) [g/L],solubility [1],"antiviral effective rate (ER %), Parainfluenza virus (Parainfluenza virus)","antiviral effective rate (ER %), RSV [8]","antiviral effective rate (ER %), HSV-I [9]","antiviral effective rate (ER %), CoxA16 [10] [%]",other results
COc1ccc([C@H]2OCC3C2CO[C@H]3c2ccc(OC)c(OS(=O)(=O)O)c2)cc1OC.N (stereo partly shown),35.12%,20.88* %,7.10,555,0.105,soluble in water and ethanol,–,–,–,–,–
COc1ccc([C@H]2OCC3C2CO[C@H]3c2ccc(OC)c(OS(=O)(=O)O)c2)cc1OC (stereo partly shown) [forsythiaside sodium sulfate],50.21%,20.91* %,10.55,685,0.128,soluble in water and ethanol,–,–,–,–,"Hemagglutination titer (InX) ([2]; high dosage 13.0 mg/kg/d): 20.07 ± 0.646; Hemagglutination titer (InX) ([2]; low dosage 3.25 mg/kg/d): 23.93 ± 1.392; Hemagglutination titer (InX) ([3]; lung suspension, parainfluenza virus infected mice, high dosage 13.0 mg/kg/d, 5 days): 19.82 ± 0.981; Hemagglutination titer (InX) ([3]; lung suspension, parainfluenza virus infected mice, low dosage 3.25 mg/kg/d, 5 days): 23.26 ± 0.991; Hemagglutination titer (InX) ([3]; mouse, in vivo): 21.01 ± 0.614; Lung index (X ± S) [4, 11]: 1.1809 ± .057; Lung index inhibition rate (%) [4, 11]: 20.73%; Lung index (X ± S) [4, 12]: 1.344 ± 0.035; Lung index inhibition rate (%) [4, 12]: 9.69%; lung histology / pulmonary tissue pathology [5]: significantly improve the pulmonary tissue pathology; lung histology / pulmonary tissue pathology [6]: significantly improve the pulmonary tissue pathology; Lung index (X ± S) ([7]; mouse, in vivo): 1.303 ± 0.062; Lung index inhibition rate (%) ([7]; mouse, in vivo): 18.46%; Lung index (X ± S) [7, 13]: 1.331 ± 0.073; Lung index inhibition rate (%) [7, 13]: 16.73%; Lung index (X ± S) [7, 14]: 1.311 ± 0.049; Lung index inhibition rate (%) [7, 14]: 17.96%"
"CCOC(=O)C1=C[C@@H](OC(CC)CC)[C@H](NC(C)=O)[C@@H](N)C1 [oseltamivir phosphate, Oseltamivir phosphate, reference compound]",51.86%,10.31%,1.64,832,0.28,–,94.52** %,37.60%,66.56** %,2.95,"antiviral effective rate (ER %), Influenza virus (Influenza virus; Vero cells, 100TCID50, drug at about the maximum non-toxic concentration, 72 h, MTT): 81.76** %"
"NC(=O)c1ncn([C@@H]2O[C@H](CO)[C@@H](O)[C@H]2O)n1 [ribavirin, Ribavirin, reference compound]",4.25** %,0.43%,13.44,–,–,–,97.56** %,50.08* %,62.92** %,0.70,"antiviral effective rate (ER %), Influenza virus (Influenza virus): 57.49** %; Hemagglutination titer (InX) ([2]; 58.5 mg/kg/d): 21.13 ± 0.986; Hemagglutination titer (InX) ([3]; lung suspension, parainfluenza virus infected mice, 58.5 mg/kg/d, 5 days): 26.73 ± 1.193"

# — US9670224B2, “Forsythiaside sulfate and derivatives thereof, preparation method and application thereof” (priority 2013, dated 2017)
